The values below come from ChEMBL document CHEMBL1131284, “Hydroxamate-based inhibitors of low affinity IgE receptor (CD23) processing” (Bioorg Med Chem Lett, 1998).

The structures appear in SMILES notation.

This assay has as its target T1, Interstitial collagenase (Homo sapiens, UniProt P03956).
T1 sequence (P03956 whole entry): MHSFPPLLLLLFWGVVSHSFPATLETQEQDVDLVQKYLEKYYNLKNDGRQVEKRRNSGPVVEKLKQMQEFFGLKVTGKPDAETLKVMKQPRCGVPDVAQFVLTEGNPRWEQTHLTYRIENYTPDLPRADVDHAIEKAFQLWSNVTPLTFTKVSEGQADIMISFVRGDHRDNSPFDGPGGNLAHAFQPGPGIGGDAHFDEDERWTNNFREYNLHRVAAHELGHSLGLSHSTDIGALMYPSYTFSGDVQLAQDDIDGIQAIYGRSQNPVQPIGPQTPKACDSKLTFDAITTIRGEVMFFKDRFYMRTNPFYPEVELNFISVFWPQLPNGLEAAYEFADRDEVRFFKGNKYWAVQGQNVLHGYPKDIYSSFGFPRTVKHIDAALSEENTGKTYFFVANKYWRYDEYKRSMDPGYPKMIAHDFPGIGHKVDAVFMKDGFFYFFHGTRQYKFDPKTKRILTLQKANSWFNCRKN
In words: Inhibitory activity towards human recombinant fibroblast collagenase.
A word on the IC50: it is the concentration that inhibits the measured activity by half. For the molecule `O=C(CCC(=O)N[C@@H](Cc1ccccc1)C(=O)NCc1ccccc1)NO`, the IC50 was greater than 10 µM.

For the molecule `O=C(C[C@@H](CCC1CCCCC1)C(=O)N[C@@H](Cc1ccccc1)C(=O)NCc1ccccc1)NO`, the IC50 is greater than 10 µM.

Consider `CC(C)S[C@H](CC(=O)NO)C(=O)N[C@@H](Cc1ccccc1)C(=O)NCc1ccccc1`, for which the concentration for half-maximal inhibition (IC50) is 1.9 µM.

Take `CN(C)C[C@H](CC(=O)NO)C(=O)N[C@@H](Cc1ccccc1)C(=O)NCc1ccccc1`: the IC50 is greater than 10 µM.

Regarding `O=C(C[C@H](C(=O)N[C@@H](Cc1ccccc1)C(=O)NCc1ccccc1)C1CCCCC1)NO`, the IC50 turned out to be 1.5 µM.

Turning to `O=C(C[C@@H](CC1CCCC1)C(=O)N[C@@H](Cc1ccccc1)C(=O)NCc1ccccc1)NO`, the IC50 amounted to 0.02 µM.

For `O=C(C[C@H](C(=O)N[C@@H](Cc1ccccc1)C(=O)NCc1ccccc1)c1ccc(-c2ccccc2)cc1)NO`, the IC50 is greater than 10 µM.

For the molecule `O=C(C[C@@H](Cc1ccc2ccccc2c1)C(=O)N[C@@H](Cc1ccccc1)C(=O)NCc1ccccc1)NO`, the IC50 is greater than 10 µM.

Turning to `O=C(C[C@@H](Cc1ccccc1)C(=O)N[C@@H](Cc1ccccc1)C(=O)NCc1ccccc1)NO`, the IC50 was found to be 7 µM.

On to `O=C(C[C@H](C(=O)N[C@@H](Cc1ccccc1)C(=O)NCc1ccccc1)c1ccccc1)NO`, for which the half-maximal inhibitory concentration (IC50) worked out at 17 µM.

Regarding `O=C(C[C@H](C(=O)N[C@@H](Cc1ccccc1)C(=O)NCc1ccccc1)c1cccc2ccccc12)NO`, the concentration for half-maximal inhibition (IC50) is greater than 10 µM.

As for `O=C(C[C@@H](CC1CCCCC1)C(=O)N[C@@H](Cc1ccccc1)C(=O)NCc1ccccc1)NO`, the IC50 amounted to 4.6 µM.

As for `O=C(C[C@@H](CCc1ccccc1)C(=O)N[C@@H](Cc1ccccc1)C(=O)NCc1ccccc1)NO`, the half-inhibitory concentration (IC50) was 4.1 µM.

Turning to `CC(C)C[C@H](CC(=O)NO)C(=O)N[C@@H](Cc1ccccc1)C(=O)NCc1ccccc1`, the half-maximal inhibitory concentration (IC50) stood at 0.03 µM.

For the molecule `CC(C)C[C@@H](CC(=O)NO)C(=O)N[C@@H](Cc1ccccc1)C(=O)NCc1ccccc1`, the IC50 was greater than 10 µM.

With `C[C@H](CC(=O)NO)C(=O)N[C@@H](Cc1ccccc1)C(=O)NCc1ccccc1`, the IC50 is greater than 10 µM.
